# Assay results: ChEMBL document CHEMBL1770059, “Identification of chemicals to inhibit the kinase activity of leucine-rich repeat kinase 2 (LRRK2), a Parkinson's disease-associated protein” (Bioorg Med Chem Lett, 2011)
# Columns and labels:
# [1] = target: Leucine-rich repeat serine/threonine-protein kinase 2 (Homo sapiens, UniProt Q5S007, G2019S); assay: Inhibition of purified N-terminal GST-tagged LRRK2 G2019S mutant autophosphorylation activity using myelin basic protein as substrate
# [2] = target: Glycogen synthase kinase-3 beta (Homo sapiens) (UniProt P49841); assay: Inhibition of GSK3-beta assessed as residual activity of enzyme at 25 uM
# Sequence of Glycogen synthase kinase-3 beta (Homo sapiens) (P49841 whole entry, looked up): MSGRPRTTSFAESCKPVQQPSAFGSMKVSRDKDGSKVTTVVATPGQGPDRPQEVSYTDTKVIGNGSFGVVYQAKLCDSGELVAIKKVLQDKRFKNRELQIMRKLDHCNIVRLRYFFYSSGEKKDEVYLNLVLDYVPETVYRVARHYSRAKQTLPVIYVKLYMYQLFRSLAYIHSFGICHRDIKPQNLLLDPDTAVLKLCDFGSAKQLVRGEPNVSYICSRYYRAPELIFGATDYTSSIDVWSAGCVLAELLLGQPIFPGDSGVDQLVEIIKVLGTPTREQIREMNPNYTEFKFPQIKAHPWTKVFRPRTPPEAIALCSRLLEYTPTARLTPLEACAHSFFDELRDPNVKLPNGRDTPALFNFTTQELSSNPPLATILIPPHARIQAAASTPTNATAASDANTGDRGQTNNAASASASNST
# [3] = target: T1, Serine/threonine-protein kinase TAO1 (Homo sapiens) (UniProt Q7L7X3); assay: Inhibition of TAO1 assessed as residual activity of enzyme at 10 uM
# T1 sequence (whole entry): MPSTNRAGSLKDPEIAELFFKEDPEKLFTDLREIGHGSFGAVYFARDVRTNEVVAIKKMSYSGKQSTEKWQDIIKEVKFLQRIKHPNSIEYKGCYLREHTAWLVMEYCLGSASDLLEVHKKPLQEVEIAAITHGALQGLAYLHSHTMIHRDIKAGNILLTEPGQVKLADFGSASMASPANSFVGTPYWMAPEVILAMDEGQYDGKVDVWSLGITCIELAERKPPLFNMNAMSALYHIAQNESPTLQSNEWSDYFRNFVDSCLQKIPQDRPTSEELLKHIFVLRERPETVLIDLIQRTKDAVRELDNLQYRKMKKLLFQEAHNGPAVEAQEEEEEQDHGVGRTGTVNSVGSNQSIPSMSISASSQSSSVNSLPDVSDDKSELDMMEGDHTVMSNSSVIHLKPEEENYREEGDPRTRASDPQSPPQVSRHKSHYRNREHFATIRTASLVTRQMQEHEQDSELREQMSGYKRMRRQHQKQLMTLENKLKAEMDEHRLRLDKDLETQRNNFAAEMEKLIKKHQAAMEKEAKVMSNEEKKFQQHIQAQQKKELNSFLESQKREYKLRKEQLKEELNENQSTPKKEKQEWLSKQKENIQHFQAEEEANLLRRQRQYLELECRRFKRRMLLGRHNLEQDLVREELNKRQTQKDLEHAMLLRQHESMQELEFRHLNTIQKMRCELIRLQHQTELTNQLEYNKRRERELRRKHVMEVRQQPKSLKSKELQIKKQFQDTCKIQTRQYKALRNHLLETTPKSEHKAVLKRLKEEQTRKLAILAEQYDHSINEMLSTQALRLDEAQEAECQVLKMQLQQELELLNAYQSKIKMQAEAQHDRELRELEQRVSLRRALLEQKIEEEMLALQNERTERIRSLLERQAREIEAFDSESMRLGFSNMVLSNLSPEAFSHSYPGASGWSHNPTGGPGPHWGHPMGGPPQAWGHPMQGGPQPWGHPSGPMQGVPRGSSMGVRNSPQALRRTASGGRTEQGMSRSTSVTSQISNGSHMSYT
# [4] = target: T2, Serine/threonine-protein kinase TAO3 (Homo sapiens) (UniProt Q9H2K8); assay: Inhibition of TAO3 assessed as residual activity of enzyme at 10 uM
# T2 sequence (whole entry): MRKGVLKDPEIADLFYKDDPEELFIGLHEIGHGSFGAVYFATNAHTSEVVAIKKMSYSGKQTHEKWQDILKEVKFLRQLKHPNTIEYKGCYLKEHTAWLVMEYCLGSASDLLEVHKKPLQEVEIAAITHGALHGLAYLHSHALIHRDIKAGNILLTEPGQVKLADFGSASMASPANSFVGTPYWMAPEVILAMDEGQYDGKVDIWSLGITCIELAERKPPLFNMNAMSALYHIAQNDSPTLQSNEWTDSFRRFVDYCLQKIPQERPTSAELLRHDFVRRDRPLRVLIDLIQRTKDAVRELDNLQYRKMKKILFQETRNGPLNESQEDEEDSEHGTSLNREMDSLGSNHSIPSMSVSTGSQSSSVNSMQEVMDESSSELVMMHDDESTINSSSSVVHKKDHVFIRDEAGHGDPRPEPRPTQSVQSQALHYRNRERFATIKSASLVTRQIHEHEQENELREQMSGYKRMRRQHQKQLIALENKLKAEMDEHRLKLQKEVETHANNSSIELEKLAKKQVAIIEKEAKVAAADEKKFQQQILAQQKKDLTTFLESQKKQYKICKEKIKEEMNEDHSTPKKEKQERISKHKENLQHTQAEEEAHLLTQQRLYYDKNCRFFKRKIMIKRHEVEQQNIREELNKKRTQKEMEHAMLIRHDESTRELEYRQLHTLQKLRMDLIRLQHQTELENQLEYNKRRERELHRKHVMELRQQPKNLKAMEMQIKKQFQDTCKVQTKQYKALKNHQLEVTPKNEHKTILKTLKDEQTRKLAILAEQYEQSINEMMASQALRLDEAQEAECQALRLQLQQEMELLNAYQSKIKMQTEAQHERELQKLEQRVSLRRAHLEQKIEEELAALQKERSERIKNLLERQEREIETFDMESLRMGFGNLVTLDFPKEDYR
# [5] = Neurotoxicity in rat primary cortical neurons assessed as cell survival at 10 uM after 24 hrs by MTT assay; type: toxicity, cell-based, Cerebral cortex neuron; settings: read-out: Activity
# Sequence of Leucine-rich repeat serine/threonine-protein kinase 2 (Q5S007 whole entry G2019S): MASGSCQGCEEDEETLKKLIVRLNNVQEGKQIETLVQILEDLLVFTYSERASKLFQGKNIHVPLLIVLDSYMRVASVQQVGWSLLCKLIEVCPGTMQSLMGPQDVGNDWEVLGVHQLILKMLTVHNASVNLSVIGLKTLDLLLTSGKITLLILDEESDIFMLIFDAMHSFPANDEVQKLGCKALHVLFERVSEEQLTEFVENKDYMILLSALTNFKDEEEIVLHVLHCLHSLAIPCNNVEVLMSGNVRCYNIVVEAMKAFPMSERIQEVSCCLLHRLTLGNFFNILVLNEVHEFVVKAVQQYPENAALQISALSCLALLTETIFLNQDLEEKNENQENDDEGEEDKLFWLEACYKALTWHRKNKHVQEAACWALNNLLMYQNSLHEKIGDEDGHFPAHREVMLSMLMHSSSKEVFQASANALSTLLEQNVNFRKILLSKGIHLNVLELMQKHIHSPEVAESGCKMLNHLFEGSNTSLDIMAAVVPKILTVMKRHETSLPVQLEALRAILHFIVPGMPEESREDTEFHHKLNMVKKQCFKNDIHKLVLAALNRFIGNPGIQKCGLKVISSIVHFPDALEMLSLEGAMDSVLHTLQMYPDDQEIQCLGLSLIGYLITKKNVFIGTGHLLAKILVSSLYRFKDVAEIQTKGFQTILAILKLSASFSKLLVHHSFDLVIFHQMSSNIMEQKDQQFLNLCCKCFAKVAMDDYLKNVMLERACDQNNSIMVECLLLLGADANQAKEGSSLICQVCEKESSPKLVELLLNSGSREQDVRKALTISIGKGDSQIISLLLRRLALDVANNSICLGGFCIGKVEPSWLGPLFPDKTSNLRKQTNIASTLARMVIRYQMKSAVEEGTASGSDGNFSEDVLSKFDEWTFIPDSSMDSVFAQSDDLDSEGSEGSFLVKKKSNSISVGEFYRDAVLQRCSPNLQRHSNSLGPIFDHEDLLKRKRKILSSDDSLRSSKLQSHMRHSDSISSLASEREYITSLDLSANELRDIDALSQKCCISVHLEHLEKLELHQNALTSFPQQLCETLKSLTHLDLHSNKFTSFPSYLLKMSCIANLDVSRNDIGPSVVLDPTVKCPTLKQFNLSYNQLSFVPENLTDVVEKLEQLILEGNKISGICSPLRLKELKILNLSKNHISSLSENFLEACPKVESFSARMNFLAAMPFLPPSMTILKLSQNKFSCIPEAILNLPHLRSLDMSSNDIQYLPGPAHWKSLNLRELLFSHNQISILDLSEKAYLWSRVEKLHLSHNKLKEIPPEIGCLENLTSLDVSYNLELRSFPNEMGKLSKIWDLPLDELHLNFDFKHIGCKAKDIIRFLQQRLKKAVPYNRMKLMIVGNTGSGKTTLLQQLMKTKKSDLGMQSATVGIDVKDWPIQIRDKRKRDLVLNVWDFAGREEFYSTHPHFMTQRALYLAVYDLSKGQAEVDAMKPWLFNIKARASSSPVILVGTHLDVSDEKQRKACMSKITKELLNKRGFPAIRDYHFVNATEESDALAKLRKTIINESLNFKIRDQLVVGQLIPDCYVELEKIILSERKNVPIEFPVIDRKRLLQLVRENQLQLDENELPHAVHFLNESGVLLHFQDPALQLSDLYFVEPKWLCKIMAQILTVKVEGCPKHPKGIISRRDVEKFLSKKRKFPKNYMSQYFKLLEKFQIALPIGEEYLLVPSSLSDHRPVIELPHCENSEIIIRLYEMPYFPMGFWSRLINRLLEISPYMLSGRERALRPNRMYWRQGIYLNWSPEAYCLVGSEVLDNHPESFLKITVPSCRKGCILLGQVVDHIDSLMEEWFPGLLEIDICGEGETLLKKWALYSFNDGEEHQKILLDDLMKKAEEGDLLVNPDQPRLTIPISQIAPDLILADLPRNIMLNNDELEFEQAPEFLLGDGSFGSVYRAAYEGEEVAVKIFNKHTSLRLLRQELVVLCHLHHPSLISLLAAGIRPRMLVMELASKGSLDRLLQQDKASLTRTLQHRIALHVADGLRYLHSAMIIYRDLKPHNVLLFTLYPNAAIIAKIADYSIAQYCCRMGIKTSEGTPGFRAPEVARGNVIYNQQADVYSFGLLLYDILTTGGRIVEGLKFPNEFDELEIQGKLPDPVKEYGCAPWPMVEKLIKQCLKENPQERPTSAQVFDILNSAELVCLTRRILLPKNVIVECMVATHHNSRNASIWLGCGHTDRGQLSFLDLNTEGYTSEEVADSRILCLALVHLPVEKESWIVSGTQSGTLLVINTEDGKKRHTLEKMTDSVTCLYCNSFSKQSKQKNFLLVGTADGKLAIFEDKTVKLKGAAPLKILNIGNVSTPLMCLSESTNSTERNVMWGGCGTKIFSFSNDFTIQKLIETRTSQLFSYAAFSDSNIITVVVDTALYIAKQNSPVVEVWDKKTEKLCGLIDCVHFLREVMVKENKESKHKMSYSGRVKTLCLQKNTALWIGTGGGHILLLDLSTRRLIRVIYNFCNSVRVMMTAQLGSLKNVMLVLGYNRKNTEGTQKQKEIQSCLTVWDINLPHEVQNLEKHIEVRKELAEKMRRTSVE
structure (smiles),measurement,setting,value
Cc1cc(N/N=C/c2ccncc2)nc2ccccc12,IC50,[1],4.1 µM
same,Activity,[2],94%
same,Activity,[3],88%
same,Activity,[4],97%
same,"viability at 24 h, 10 µM",[5],85%
